≈ marks a conversion by molar mass, not a printed value. Where two headings read alike, the source gives them in different places. Starred links: 1 amine or outer side, 2 acyl side, 3 side chain; linkers in the order of their positions; H or OH if unused. Positions of bridges follow the written chain, without caps; N, C: chain ends. Non-standard residues stand in square brackets, D forms with d. Residues, ends and D or L forms follow the SMILES beside them. *: point of attachment. Trp(7-Me) = Cc1cccc2c(C[C@H](N)C(=O)O)c[nH]c12; X1 = O=C(CCCCN[*:3])N[C@@H](CS[*:2])C(=O)[*:1]; αMeLys(Me2) = CN(C)CCCC[C@](C)(N)C(=O)O; X2 = CN(C)[C@@H](CCCCN[*:1])C(=O)[*:2]; 2Nal = N[C@@H](Cc1ccc2ccccc2c1)C(=O)O; NMe5Ava = CN(CCCCC(=O)[*:2])[*:1]; 3Pal = N[C@@H](Cc1cccnc1)C(=O)O; αMeL = CC(C)C[C@](C)(N)C(=O)O; Me2NCH2CH2 = CN(C)CC*; Ava = NCCCCC(=O)O; Sar = CNCC(=O)O
Experiments:
Pepsin = system: T1, Pepsin; experiment: Protease stability in simulated gastric fluid (Pepsin-SGF, FaSSGF); type: in vitro ADME; details: simulated gastric fluid with pepsin (Pepsin-SGF), 60 min, 1 μM peptide, 37° C., read-out: FaSSGF 60 (min), remaining percent of peptide
T1 construct: purchased Merck Millipore
Procedure: (§1) Studies were carried out in simulated intestinal fluid (SIF) and simulated gastric fluid (SGF) to evaluate gastric stability of the peptide compounds disclosed herein.
For clarification the term “Pepsin-SGF” refers to a solution of simulated gastric fluid containing pepsin whereas “SGF media” refers to a solution of simulated gastric fluid without pepsin. Pepsin-SGF was prepared by dissolving 320 mg Pepsin (Merck Millipore) in 100 mL SGF media concentrate (ProSense).
(§2) Peptides were first dissolved at 1 mM stock concentration in 0.01 HCl (+/−10% of DMSO) and were than diluted further with water to a stock concentration of 20 μM. Final peptide concentration in the incubation was 1 μM.
(§3) To 76 μL of the Pepsin-SGF buffer, 4 μL of the 20 μM peptide stock solution was added and incubated at 37° C. At each timepoint (0, 60, 120 and 240 minutes) the reaction was quenched with addition of 80 μL Ethanol (0.1% HCOOH). The samples were centrifuged for 20 minutes and an aliquot of the supernatant 100 μL were transferred to a LoBind-MTP plate and analyzed by LCMS/MS. The peak area response was calculated at each time point for each test compound. As internal reference, the peak area response of the same test compound at TO was calculated. The percent remaining at each timepoint was calculated based on the peak area response ratio of the test compound at TO. Time 0 was set to 100%, and all later timepoints were calculated relative to time 0.

Pancreatin = experiment: Protease stability in simulated intestinal fluid (Pancreatin-SIF, FaSSIF); type: in vitro ADME; details: 1 μM peptide, 37° C.; for remaining at 1 h, 1 µM: 60 min, read-out: FaSSIF 60 (min), remaining percent of peptide; for remaining at 2 h, 1 µM: 120 min, read-out: FaSSIF 120 (min), remaining percent of peptide; for remaining at 4 h, 1 µM: 240 min, read-out: FaSSIF 240 (min), remaining percent of peptide
Procedure: as §1
Similarly, the term “Pancreatin-SIF” refers to a solution of simulated intestinal fluid containing pancreatin whereas “SIF-media” refers to a solution of simulated intestinal fluid without pancreatin.
Pancreatin-SIF was prepared by dissolving 1 mg Pancreatin (MP Biomedicals) in 10 mL SIF media concentrate (ProSense).
as §2
as §3, with “µM” for “μM”

[1] = Solubility testing of peptides at different pH; type: physicochemical; details: target concentration 1 mg/ml, 2 hours agitation
Procedure: Prior to the solubility measurement of a synthesized peptide batch, its purity was determined through UPLC/MS (methods B-G).
For solubility testing the target concentration was 1 mg pure compound/ml. Therefore, solutions from solid samples were prepared in a buffer system at a concentration of 1 mg/mL compound. The solid samples were obtained by drying down aliquots of a dimethyl sulfoxide stock solution using a Thermo Speedvac vacuum centrifuge. The dry down time was 3 hours. • Solubility buffer system A) 50 mM HCl pH 1.2 • Solubility buffer system B) 50 mM phosphate buffer pH 6.5 • Solubility buffer system C) 50 mM phosphate buffer pH 7.4 • Solubility buffer system D) 50 mM phosphate buffer pH 9.0
UPLC-UV (Method A) was performed after 2 hours of gentle agitation from the filtered (0.45 μm filter plates) solutions, which was obtained by 10 mins of centrifugation forced filtration at 1500 RCF (relative centrifugal acceleration).
The solubility was determined by the comparison of the UV peak area of 2 μL-injections of a buffered sample diluted 1:5 with a standard curve of a dimethyl sulfoxide reference sample of the diluted in dimethyl sulfoxide with known concentration. The different extinction coefficients were taken into account for the calculation.

[2] = system: IL-23 induced STAT3 signaling in HEK-Blue™ IL-23 cells; experiment: IL-23 induced STAT3 signaling in HEK-Blue IL-23 cells (SEAP reporter); type: cell-based; details: human IL23 0.25 ng/ml, read-out: pSTAT3
Excerpt: HEK-Blue™ IL-23 cells (Invivogen) are designed for the detection of bioactive human (hIL-23) and murine IL-23 (mIL-23) by monitoring the activation of the STAT3 pathway. Binding of IL-23 to its receptor on the surface of HEK-Blue™ IL-23 cells triggers a signalling cascade leading to the activation of STAT3 and the subsequent production of secreted embryonic alkaline phosphatase (SEAP). This can be readily assessed using QUANTI-Blue™ Solution, a SEAP detection reagent.
HEK-Blue™ IL-23 cells were cultured as described by Invivogen.
On the first day of assay 10 μL of the HEK-Blue IL23 cell suspension (final concentration: 10,000 cells/well) and 10 μl of serially diluted peptides solutions were dispensed into a 384-well assay plate. After pre-incubation of the reaction mixtures at 37° C./5% CO2/95% humidity for 60 minutes, 10 μl of the human IL23 cytokine (final concentration: 0.25 ng/ml) was added to each well for the STAT3 signalling activation. The plate was incubated overnight at 37° C./5% CO2/95% humidity.
On the second day 20 μl per well of Quanti-Blue detection solution (prepared according to the manufacture instruction) was dispensed into a new 384-well plate and followed by the transfer of 5 μl supernatant of the overnight incubated cell/sample mixtures. After incubation of 45 min at room temperature signals were measured with PHERAstar (BMG) at OD 620-655 nm. Dose response data were fitted with XLfit.

[3] = Chemical stability assessment of peptides (relative purity loss); type: physicochemical; details: 24 hours at 37° C.; for Chemical stability (relative purity loss) Buffer pH 1.2: 50 mM HCl pH 1.2 + acetonitrile (1:1); for Chemical stability (relative purity loss) Buffer pH 6.5: 50 mM phosphate buffer pH 6.5 + acetonitrile (1:1); for Chemical stability (relative purity loss) Buffer pH 7.4: 50 mM phosphate buffer pH 7.4 + acetonitrile (1:1)
Procedure: Purity of a peptide batch was determined through UPLC/MS (Methods B-G) prior to chemical stability measurement. The target concentration was 1 mg/ml pure compound. Solutions from solid samples were prepared in the following buffer systems with a concentration of 1 mg/ml compound based on the previously determined % purity: • Solubility buffer system A) 50 mM HCl pH 1.2+Acetonitrile (1:1) • Solubility buffer system B) 50 mM phosphate buffer pH 6.5+Acetonitrile (1:1) • Solubility buffer system C) 50 mM phosphate buffer pH 7.4+Acetonitrile (1:1)
Prepared solutions were stored for 24 hours at 2° C. and 37° C. After this time course, the samples were centrifuged for 15 min at 2500 RCF to create a 1:5 dilution of the supernatant. Then 2 μl of the dilution were analysed with UHPLC-UV.
The chemical stability was rated through the relative loss of purity calculated by the equation:
[(purity after 0 hours at 37° C.)−(purity after 24 hours at 37° C.)]/(purity after 0 hours at 37° C.)]*100%
The purity is calculated as [(peak area peptide)/(total peak area)]*100%.

[4] = target: T2, human interleukin-23 receptor (recombinant human IL-23R-Fc chimera) (Homo sapiens, UniProt Q5VWK5); experiment: Human ELISA IL23/IL23R (assay for specific human IL23R antagonists); type: binding; details: Table 10; read-out: Human ELISA IL23/IL23R IC50
T2 construct: Fc (IgG Fc fusion)
Procedure: Antagonism of compounds for human interleukin-23 receptor antagonists, was determined by an ELISA assay.
A 384-well plate was coated with 50 μl/well of human IL23 at a final concentration of […] and incubated overnight at 4° C. The wells were washed 3 times with 80 μl wash buffer and blocked with 80 μl blocking buffer for 60 minutes at room temperature and washed again. 20 μl of serially diluted test peptides was added to each well and subsequently 20 μl of recombinant human IL-23R-Fc chimera at final concentration of 0.1 μg/ml. The plate was incubated for 60 minutes at room temperature. After the wells were washed, bound IL23R-Fc was detected with goat anti-hu-IgG1-HRP antibody. Signals were visualized with QuantaBlu Fluorogenic Peroxidase Substrate.

[5] = 50 mM HCl buffer, 50 mM HCl pH 1.2, read-out: Solubility Buffer pH 1.2
[6] = 50 mM phosphate buffer pH 6.5, read-out: Solubility Buffer pH 6.5
[7] = 50 mM phosphate buffer pH 7.4, read-out: Solubility Buffer pH 7.4
[8] = 50 mM phosphate buffer pH 9.0, read-out: Solubility Buffer pH 9.0

SMILES | remaining at 1 h, 1 µM (Pepsin) [%] | remaining at 1 h, 1 µM (Pancreatin) [%] | remaining at 2 h, 1 µM (Pancreatin) [%] | remaining at 4 h, 1 µM (Pancreatin) [%] | solubility at 2 h [1, 5] [µg/mL] | solubility at 2 h [1, 6] [µg/mL] | solubility at 2 h [1, 7] [µg/mL] | solubility at 2 h [1, 8] [µg/mL] | Chemical stability (relative purity loss) Buffer pH 1.2 [3] [%] | Chemical stability (relative purity loss) Buffer pH 6.5 [3] [%] | Chemical stability (relative purity loss) Buffer pH 7.4 [3] [%] | IC50 [4] [nM] | IC50 [2] [nM]
CC(=O)NCCCC[C@@H]1NC(=O)[C@H](Cc2c[nH]c3c(C)cccc23)NC(=O)[C@H]([C@@H](C)O)NC(=O)[C@H](CC(N)=O)NC(=O)[C@@H]2CSSC[C@H](NC1=O)C(=O)N[C@@H](Cc1ccc(OCCN(C)C)cc1)C(=O)N[C@@H](Cc1ccc3ccccc3c1)C(=O)N[C@@](C)(CC(C)C)C(=O)N[C@H](C(=O)N[C@@H](CC(N)=O)C(=O)N[C@@H](Cc1cccnc1)C(=O)N(C)CC(N)=O)CCC(=O)NCCCCC(=O)N2 [compound 65] ([Ava]CNT[Trp(7-Me)]K(Ac)CY(Me2NCH2CH2)[2Nal][αMeL]EN[3Pal][Sar]-NH2; disulfide 2-7; lactam N-11) | 86 | 96 | 96 | 92 | ≥ 980 | ≥ 910 | ≥ 960 | – | – | – | – | – | 0.23
CC(=O)N[C@H]1CCCCNC(=O)[C@@H]2CSSC[C@H](NC(=O)[C@H](CCC(N)=O)NC(=O)[C@H](Cc3c[nH]c4ccccc34)NC1=O)C(=O)N[C@@H](Cc1ccc(OCCN(C)C)cc1)C(=O)N[C@@H](Cc1ccc3ccccc3c1)C(=O)N[C@@](C)(CC(C)C)C(=O)N[C@H](C(=O)N[C@@H](CC(N)=O)C(=O)N[C@@H](CC(N)=O)C(N)=O)CCC(=O)NCCCCC(=O)N2 [compound 28] (Ac-KWQCY(Me2NCH2CH2)[2Nal][αMeL]ENN-NH2; linker 1-4-8 via X1) | 83 | 80 | 68 | 65 | – | – | – | – | – | – | – | – | 4.11
CC(=O)NCCCC[C@@H]1NC(=O)[C@H](Cc2c[nH]c3c(C)cccc23)NC(=O)[C@@H](N(C)C)CCCCNC(=O)[C@@H]2CSSC[C@H](NC1=O)C(=O)N[C@@H](Cc1ccc(OCCN(C)C)cc1)C(=O)N[C@@H](Cc1ccc3ccccc3c1)C(=O)N[C@@](C)(CCCCN(C)C)C(=O)N[C@H](C(=O)N[C@@H](CC(N)=O)C(=O)N[C@@H](Cc1cccnc1)C(=O)N(C)CC(N)=O)CCC(=O)N(C)CCCCC(=O)N2 [compound 61] ([NMe5Ava]C[X2][Trp(7-Me)]K(Ac)CY(Me2NCH2CH2)[2Nal][αMeLys(Me2)]EN[3Pal][Sar]-NH2; disulfide 2-6; lactam N-10) | 96 | 90 | 74 | 62 | – | – | – | – | – | – | – | – | 4.4

The next lines start with results.

remaining at 1 h, 1 µM (Pepsin) [%] | remaining at 1 h, 1 µM (Pancreatin) [%] | remaining at 2 h, 1 µM (Pancreatin) [%] | remaining at 4 h, 1 µM (Pancreatin) [%] | solubility at 2 h [1, 5] [µg/mL] | solubility at 2 h [1, 6] [µg/mL] | solubility at 2 h [1, 7] [µg/mL] | solubility at 2 h [1, 8] [µg/mL] | Chemical stability (relative purity loss) Buffer pH 1.2 [3] [%] | Chemical stability (relative purity loss) Buffer pH 6.5 [3] [%] | Chemical stability (relative purity loss) Buffer pH 7.4 [3] [%] | IC50 [4] [nM] | SMILES | IC50 [2] [nM]
92 | 91 | 92 | 92 | ≥ 1070 | ≥ 1030 | ≥ 1060 | ≥ 1140 | 10.1 | 1.3 | 1.7 | – | CC(=O)NCCCC[C@@H]1NC(=O)[C@H](Cc2c[nH]c3c(C)cccc23)NC(=O)[C@H]([C@@H](C)O)NC(=O)[C@H](CC(N)=O)NC(=O)[C@@H]2CSSC[C@H](NC1=O)C(=O)N[C@@H](Cc1ccc(OCCN(C)C)cc1)C(=O)N[C@H](Cc1ccc3ccccc3c1)C(=O)NC1(CCOCC1)C(=O)N[C@H](C(=O)N[C@@H](CC(N)=O)C(=O)N[C@@H](Cc1cccnc1)C(=O)N(C)CC(N)=O)CCC(=O)NCCCCC(=O)N2 [compound 35] | 0.34
100 | 99 | 101 | 97 | ≥ 1520 | ≥ 1130 | ≥ 1120 | 620 (≈ 333 µM) | 6.0 | 9.0 | 11.0 | 0.53 | CC(=O)NCCCC[C@@H]1NC(=O)[C@H](Cc2c[nH]c3c(C)cccc23)NC(=O)[C@@H](NC(C)=O)CCCCNC(=O)[C@@H]2CSSC[C@H](NC1=O)C(=O)N[C@@H](Cc1ccc(OCCN(C)C)cc1)C(=O)N[C@@H](Cc1ccc3ccccc3c1)C(=O)NC1(CCOCC1)C(=O)N[C@H](C(=O)N[C@@H](CC(N)=O)C(=O)N[C@@H](Cc1cccnc1)C(=O)N(C)CC(N)=O)CCCCN(C)CCCCN2C [compound 127] | –

Reference: patent publication US20260258084A1, “New Peptides as Selective IL-23 Receptor Antagonists” (Sanofi, priority 2022, published 2026)
